From US20200147028A1, “TREATMENT OF RESPIRATORY INFECTION WITH A TLR2 AGONIST” (Ena Therapeutics Pty Ltd, priority 2017, published 2020)
“Also recorded” adds a separate entry of the source.

What was measured:
[1] = system: Rhinovirus serotype 1B (RV1B); experiment: Mouse RV1B infection model: lung viral RNA by qPCR; details: for lung viral load: day +1
CXCL1 [2] = experiment: Mouse RV1B infection with fluticasone propionate: CXCL1 in BAL by ELISA; type: in vivo, BALB/c mice; details: 2 pmol INNA-006, with or without FP; day 2 p.i.
RV1B = RV1B infection of ALI-differentiated BCi-NS1 cells: viral RNA by qPCR; details: 20 nM and 2 nM pre-treatment 24 h; 96 h post infection; vs control
BAL inflammatory cells [3] = experiment: Mouse RV1B infection with fluticasone propionate: BAL cell analysis
TLR-2 = TLR-2 (Homo sapiens, UniProt O60603); experiment: TLR panel NF-κB SEAP reporter in HEK293 cells: TLR-2; type: cell-based; parameters: expressed in transfected cells; host or cells: HEK293; details: human and mouse TLR panels, FIG. 21
Description: (§1) INNA-006 was assessed for its ability to activate a range of other TLR pattern recognition receptors. These assessments were conducted using both human and mouse TLR panels. These assays detect a secreted embryonic alkaline phosphatase (SEAP) reporter under the control of a promoter which is inducible by NF-κB activation in HEK293 cells. The secreted embryonic alkaline phosphatase (SEAP) reporter is under the control of a promoter inducible by the transcription factor NF-κB. This reporter gene allows the monitoring of signaling through the TLR, based on the activation of NF-κB. In a 96-well plate (200 μL total volume) containing the appropriate cells (50,000-75,000 cells/well), 20 μL of the test article or the positive control ligand is added to the wells. The media added to the wells is designed for the detection of NF-κB induced SEAP expression. After a 16-24 hr incubation the optical density (OD) is read at 650 nm on a Molecular Devices SpectraMax 340PC absorbance detector.

[4] = system: Rhinovirus serotype 1B (RV1B); experiment: Mouse RV1B infection with fluticasone propionate: lung viral RNA by qPCR
[5] = system: other TLR pattern recognition receptors; experiment: TLR panel NF-κB SEAP reporter in HEK293 cells: other TLRs; type: cell-based; details: human and mouse TLR panels
Description: as §1

TNFα = experiment: Mouse RV1B infection model: TNFα in BAL by ELISA
[6] = parameters: species or system BALB/c mice; details: mouse, in vivo
Description: Each group contained 5 mice.

TNF-α = experiment: Mouse RV1B infection with fluticasone propionate: TNF-α in BAL by ELISA; type: in vivo, BALB/c mice
BAL inflammatory cells [7] = experiment: Mouse RV1B infection model: BAL cell analysis
CXCL1 [8] = experiment: Mouse RV1B infection model: CXCL1 in BAL by ELISA
[9] = Study 1G: lowest doses (2 pmole and 1 pmole) day +1, listed as Peg-S-Pam2Cys

Chain of TLR-2 (O60603 21-784): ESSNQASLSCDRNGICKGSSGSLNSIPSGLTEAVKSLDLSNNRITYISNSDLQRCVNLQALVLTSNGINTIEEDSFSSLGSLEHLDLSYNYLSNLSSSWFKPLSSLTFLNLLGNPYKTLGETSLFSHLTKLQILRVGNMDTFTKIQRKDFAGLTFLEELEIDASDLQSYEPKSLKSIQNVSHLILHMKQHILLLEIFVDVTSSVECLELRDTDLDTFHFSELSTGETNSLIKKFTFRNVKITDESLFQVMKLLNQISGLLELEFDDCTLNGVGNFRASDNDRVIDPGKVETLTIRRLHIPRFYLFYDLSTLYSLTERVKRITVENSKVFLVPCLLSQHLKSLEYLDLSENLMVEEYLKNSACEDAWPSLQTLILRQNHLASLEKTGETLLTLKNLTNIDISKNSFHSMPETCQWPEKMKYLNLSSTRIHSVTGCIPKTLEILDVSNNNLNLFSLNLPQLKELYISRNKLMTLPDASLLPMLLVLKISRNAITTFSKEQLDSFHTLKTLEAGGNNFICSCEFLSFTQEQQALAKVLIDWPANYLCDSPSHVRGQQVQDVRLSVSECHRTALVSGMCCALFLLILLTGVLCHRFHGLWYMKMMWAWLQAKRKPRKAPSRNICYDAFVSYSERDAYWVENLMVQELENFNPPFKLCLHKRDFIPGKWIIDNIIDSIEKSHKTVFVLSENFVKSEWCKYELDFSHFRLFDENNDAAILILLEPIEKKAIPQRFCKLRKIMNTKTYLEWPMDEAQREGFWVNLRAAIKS
Chain of TLR-2 (Q9Y2C9 32-796 partner): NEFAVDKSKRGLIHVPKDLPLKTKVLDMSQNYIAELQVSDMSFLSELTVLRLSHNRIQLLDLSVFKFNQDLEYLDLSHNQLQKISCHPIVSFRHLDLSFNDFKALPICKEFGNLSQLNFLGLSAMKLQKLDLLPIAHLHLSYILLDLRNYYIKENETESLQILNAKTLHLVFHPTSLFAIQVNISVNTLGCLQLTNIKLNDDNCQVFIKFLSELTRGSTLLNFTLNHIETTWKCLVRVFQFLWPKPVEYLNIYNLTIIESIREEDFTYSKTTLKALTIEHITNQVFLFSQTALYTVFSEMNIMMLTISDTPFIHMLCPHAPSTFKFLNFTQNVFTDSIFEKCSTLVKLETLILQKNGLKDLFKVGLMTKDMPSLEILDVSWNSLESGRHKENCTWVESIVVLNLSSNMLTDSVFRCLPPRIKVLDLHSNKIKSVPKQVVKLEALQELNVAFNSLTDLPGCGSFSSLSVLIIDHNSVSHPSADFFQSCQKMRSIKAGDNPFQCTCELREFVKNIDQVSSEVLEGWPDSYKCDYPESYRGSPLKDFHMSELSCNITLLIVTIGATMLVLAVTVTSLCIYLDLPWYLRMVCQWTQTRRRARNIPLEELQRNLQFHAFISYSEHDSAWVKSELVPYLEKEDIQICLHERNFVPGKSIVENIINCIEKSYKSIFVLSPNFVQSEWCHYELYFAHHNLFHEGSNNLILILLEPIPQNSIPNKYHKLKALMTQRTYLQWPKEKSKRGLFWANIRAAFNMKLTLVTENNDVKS

weight loss [6]: weight loss at the higher doses
weight loss after second dose [6]: no weight loss observed
Compound: CCC(=O)OCC(CSCC(N)C(=O)NC(CO)C(=O)NCCOCC(=O)NCC(N)=O)OC(=O)CC (stereo not drawn) [INNA-006, Pam2Cys-Ser-PEG]
reduction of RV infection (lung RV copy number) ([1]; Study 1E: 10 pmol day −7): 86.76%
anti-viral efficacy relative to Pam2CysSK4 ([1]; Study 1E: 10 pmol dose day −7, listed as Peg-S-Pam2Cys): better anti-viral efficacy compared to Pam2CysSK4
dose dependence of RV suppression ([1]; Study 1E: 1-10 pmol day −7): appeared to be dose dependant
RV copy number in lung ([1]; Study 1E: every dose 1-10 pmol day −7, day 2 p.i.): significant reduction in RV infection
viral clearance, day −7 + day −1 versus day −7 only ([1]; Study 1F: 2 pmol): enhanced viral clearance compared to mice dose only on day 7
reduced viral RNA ([1]; Study 1F: single treatment at day −7): 70%
reduction in viral RNA ([1]; Study 1F: treatment at both days −7 and −1): approx. 90%
RV copy numbers in lung ([1]; Study 1G: 10, 5, 2, 1 pmol 1 day post-infection, day 2 p.i.): reduces RV1B copy numbers in the lung
lung viral load ([1]; Study 1G: doses 5 pmole per mouse and lower): significant reduction in lung viral load
lung viral load ([1]; Study 1G: highest dose 10 pmole per mouse): less effective and not significant
CXCL1 in BAL (CXCL1 [2]): neutrophil chemokine production supressed; also recorded: supressed CXCL1 production; also recorded: drastically reduced levels of mouse neutrophil chemokine CXCL1; also recorded: highly effective at suppressing CXCL1 expression
reduction of viral RNA levels (RV1B): approximately 50%
RV-induced, steroid resistant neutrophilic inflammation (BAL inflammatory cells [3]; 2 pmol, all treatment protocols, with or without FP): prevented RV-induced and steroid resistant neutrophilic inflammation; also recorded: completely ameliorated RV-induced and steroid resistant neutrophilic inflammatory response; also recorded: complete suppression of RV-induced steroid resistant neutrophilic inflammation
BAL macrophages and lymphocytes (BAL inflammatory cells [3]; D-7 INNA-006 2 pmol with FP): increased macrophages and lymphocytes when given in conjunction with FP
BAL macrophages and lymphocytes (BAL inflammatory cells [3]; combined D-7 & D-1 INNA-006 2 pmol): increased macrophages and lymphocytes in BAL
BAL macrophages (BAL inflammatory cells [3]; combined D-7 & D-1 INNA-006 in FP treated mice): Increased Macrophages
total BAL leukocyte numbers (BAL inflammatory cells [3]; repeated 2 pmol INNA-006 (day −7 & day −1)): increased total leukocyte numbers
activation of TLR-2 (SEAP reporter) (TLR-2): able to activate its proposed target (TLR-2)
viral lung load ([4]; 2 pmol INNA-006, both treatment protocols, all groups): reduced virus lung load in all groups; also recorded: significant reduction in viral load with both treatment protocols
viral lung load / antiviral efficacy ([4]; repeated INNA-006 (D-7 & D-1) with FP): antiviral efficacy of repeated INNA-006 treatment was enhanced by FP; also recorded: best suppression of viral lung RNA
activation of other TLRs (SEAP reporter) [5]: no activation of any other TLR tested
TNF-α in BAL (TNFα; Study 1E: day −7, listed as Peg-S-Pam2Cys): not increased by any of the compounds; also recorded: lack of induction of TNFα
TNF-α in BAL (TNFα; Study 1F: 2 pmol, all groups): did not induce TNF-α in any of the groups
TNF-α in BAL (TNFα; Study 1G: 10-1 pmol day +1): dose dependent upon drug treatment
TNF-α in BAL (TNFα; [9]): not increased by the lowest doses; also recorded: no significant increase in KC or TNFα
TNF-α in BAL (TNF-α; repeated doses (D-7 & D-1)): not observed
TNF-α in BAL (TNF-α; single 2 pmol dose seven days prior to infection): significant TNF-α production in BAL
RV-induced BAL neutrophilic inflammation (BAL inflammatory cells [7]; Study 1E: day −7, day 2 p.i., listed as Peg-S-Pam2Cys): reduced RV-induced BAL neutrophilic inflammation; also recorded: reduced RV-induced neutrohillic inflammation; also recorded: significantly reduced neutrophilic inflammation
BAL macrophages (BAL inflammatory cells [7]; Study 1F: 2 pmol day −7, mock): higher numbers of macrophages compared to its saline mock control group
BAL lymphocytes (BAL inflammatory cells [7]; Study 1F: 2 pmol, day −7, day −1 or both): promoted lymphocyte recruitment in the BAL
total BAL leukocytes in RV1B infected mice (BAL inflammatory cells [7]; Study 1F: 2 pmol, vs Saline RV): did not induce significantly higher leukocyte recruitment
total BAL leukocytes in mock infected mice (BAL inflammatory cells [7]; Study 1F: 2 pmol, vs Saline mock): Total leukocytes were increased
neutrophilic response in uninfected mice (BAL inflammatory cells [7]; Study 1F: three days after dosing (d-1 groups)): not Peg-S-Pam2Cys
BAL lymphocytes (BAL inflammatory cells [7]; Study 1G: day +1 treatment): no changes to lymphocyte numbers
BAL macrophages (BAL inflammatory cells [7]; Study 1G: day +1 treatment): significantly reducing macrophage numbers
total BAL leucocyte numbers (BAL inflammatory cells [7]; Study 1G: day +1 treatment): no significant differences
BAL neutrophils (BAL inflammatory cells [7]; Study 1G: day +1 treatment, listed as Peg-S-Pam2Cys): drastically increases neutrophil numbers in BAL; also recorded: increasing neutrophil recruitment
RV-induced expression of CXCL1 (CXCL1 [8]; Study 1E(ii): INNA-011 and INNA-006 comparison, day −7): reduced RV-induced expression of CXCL1
CXCL1 in BAL (CXCL1 [8]; Study 1E: 10 pmol and 5 pmol dose day −7): effectively reduced CXCL1 levels
CXCL1 in BAL (CXCL1 [8]; Study 1F: 2 pmol day −1, RV1B, listed as Peg-S-Pam2Cys): CXCL1 production was only increased; also recorded: significantly increased in mice treated one day prior to infection
CXCL1 / lung inflammation after day −1 dose with prior day −7 dose (CXCL1 [8]; Study 1F: 2 pmol day −7 and day −1, listed as Peg-S-Pam2Cys): protected from lung inflammation; also recorded: completely abolished
CXCL1 in BAL (CXCL1 [8]; Study 1G: 10-1 pmol day +1): dose dependent upon drug treatment
CXCL1 (KC) in BAL (CXCL1 [8]; [9]): not increased by the lowest doses; also recorded: no significant increase in KC or TNFα
